The target in experiment [1] is BIR3 domain of human XIAP (residues 252-350) (Homo sapiens (Human), UniProt P98170). Description: XIAP in vitro competitive displacement binding assay (fluorescence polarization). The conditions noted are these: for inhibition at 0.04 µM: 1 h, read-out: IC50 or PI Xiap: PI; for IC50: read-out: IC50 or PI Xiap: IC50. Background: In fluorescence polarisation assays a small probe gives low polarisation when free and higher when bound to something large.

The target of experiment [2] is BIR3 domain of human cIAP-1 (residues 267-363) (Homo sapiens (Human), UniProt Q13490). Description: cIAP-1 in vitro competitive displacement binding assay (fluorescence polarization; Probe A AVPIK(5&6FAM)-amide or Probe B AbuRPFK(5&6FAM)-amide).
The test system of experiment [3] is EVSA-T (human breast carcinoma). The experiment can be described thus: Anti-proliferative activity, Alamar Blue assay, EVSA-T. The following applies: Homo sapiens, EVSA-T, read-out: EVSA-T prolif (EC50). It counts as cell-based.
Setting [4] is: 3 h, read-out: IC50 or PI cIAP1: PI.
The mark [5] stands for this setting: Probe B AbuRPFK(5&6FAM)-amide, read-out: IC50 or PI cIAP1: IC50.
Where [6] appears, read: 3 h, Probe B, @ 0.012 μM, read-out: IC50 or PI cIAP1: PI.
Where [7] appears, read: read-out: IC50 or PI cIAP1: IC50.

Structures can show the parent of a compound that is named as a salt. Where two headings read alike, the source gives them in different places. Bounds are passed on as bounds.

Consider `CCCC(F)(F)c1cnc2c(c1)N(C(=O)CN1C[C@@H](C)NC[C@@H]1CN1CCOC[C@H]1CC)CC2(C)C` [Example 248, 1-[6-(1,1-Difluorobutyl)-3,3-dimethyl-1H,2H,3H-pyrrolo[3,2-b]pyridin-1-yl]-2-[(2R,5R)-2-{[(3R)-3-ethylmorpholin-4-yl]methyl]-5-methylpiperazin-1-yl]ethan-1-one dihydrochloride], for which, in experiment [1], the inhibition at 0.04 µM came out at 69%. Besides, in experiment [2] (setting [4]), the inhibition at […] worked out at 91%. In addition, the EC50 (as a rule, the concentration at which the effect is half-maximal) in experiment [3] (72 hours, Alamar Blue) was found to be 10 nM.
As for `COC[C@H]1CN[C@H](C)CN1CC(=O)N1CC2(Cc3ccccc3C2)c2ccc(Cl)cc21` [Example 120, 1-{6′-Chloro-1,1′,2′,3-tetrahydrospiro[indene-2,3′-indole]-1′-yl}-2-[(2R,5R)-2-(methoxymethyl)-5-methylpiperazin-1-yl]ethan-1-one], the IC50 – broadly, the midpoint of a concentration-inhibition curve – in experiment [1] came to 260 nM; in experiment [2] (setting [5]) it was 170 nM. For the same compound, the EC50 in experiment [3] (72 hours, Alamar Blue) stood at 6800 nM.
With `C[C@@H]1CN(CC(=O)N2CC(C)(C)c3cnc(Cc4ccc(F)cc4F)cc32)[C@@H](Cn2ccccc2=O)CN1` [Example 193, 1-{[(2R,5R)-1-(2-{6-[(2,4-Difluorophenyl)methyl]-3,3-dimethyl-1H,2H,3H-pyrrolo[3,2-c]pyridin-1-yl}-2-oxoethyl)-5-methylpiperazin-2-yl]methyl}-1,2-dihydropyridin-2-one dihydrochloride], the inhibition at 0.04 µM in experiment [1] was 44%. Moreover, in experiment [2] (setting [4]), the inhibition at […] amounted to 98%. Besides, the EC50 in experiment [3] (72 hours, Alamar Blue) came to 16 nM.
`COC[C@H]1CN[C@H](C)CN1CC(=O)N1CC(C)(C)c2cnc(Oc3ccccc3)cc21` [Example 74, 1-(3,3-Dimethyl-6-phenoxy-2,3-dihydro-pyrrolo[3,2-c]pyridin-1-yl)-2-((2R,5R)-2-methoxymethyl-5-methyl-piperazin-1-yl)-ethanone hydrochloride salt]: the IC50 came to 390 nM in experiment [1] and 99 nM in experiment [2] (setting [5]). Moreover, the EC50 in experiment [3] (72 hours, Alamar Blue) was 560 nM.
Turning to `C[C@@H]1CN(CC(=O)N2CC(C)(C)c3ccc(S(=O)(=O)c4ccccc4)cc32)CCN1` [Example 43, 1-(6-Benzenesulfonyl-3,3-dimethyl-2,3-dihydro-indol-1-yl)-2-((R)-3-methyl-piperazin-1-yl)-ethanone hydrochloride salt], the IC50 is 640 nM in experiment [1] and 450 nM in experiment [2] (Probe A AVPIK(5&6FAM)-amide, read-out: IC50 or PI cIAP1: IC50). The EC50 in experiment [3] (72 hours, Alamar Blue) turned out to be 2400 nM.
For `C[C@@H]1CN(CC(=O)N2CC(C)(C)c3ncc(Cc4ccc(F)cc4F)cc32)[C@@H](CN2CCOCC2)CN1` [Example 236, 1-{6-[(2,4-Difluorophenyl)methyl]-3,3-dimethyl-1H,2H,3H-pyrrolo[3,2-b]pyridin-1-yl}-2-[(2R,5R)-5-methyl-2-(morpholin-4-ylmethyl)piperazin-1-yl]ethan-1-one dihydrochloride], the IC50 in experiment [1] was 58 nM. Also, the inhibition at […] in experiment [2] (setting [4]) was 96%. In experiment [3] (72 h), the EC50 was 7.8 nM.
As for `C[C@@H]1CN(CC(=O)N2CC(C)(C)c3ncc(Cc4ccc(F)cc4F)cc32)[C@@H](CN2CC[C@H](F)C2)CN1` [Example 204, 1-{6-[(2,4-Difluorophenyl)methyl]-3,3-dimethyl-1H,2H,3H-pyrrolo[3,2-b]pyridin-1-yl}-2-[(2R,5R)-2-{[(3S)-3-fluoropyrrolidin-1-yl]methyl}-5-methylpiperazin-1-yl]ethan-1-one dihydrochloride], the IC50 in experiment [1] was found to be 110 nM. The inhibition at […] in experiment [2] (setting [4]) came to 91%. Further, the EC50 in experiment [3] (72 h) was found to be 21 nM.
With `CCC(F)(F)c1cnc2c(c1)N(C(=O)CN1C[C@@H](C)NC[C@@H]1CN1CCOC[C@H]1C)CC2(C)C` [Example 186, 1-[6-(1,1-Difluoropropyl)-3,3-dimethyl-1H,2H,3H-pyrrolo[3,2-b]pyridin-1-yl]-2-[(2R,5R)-5-methyl-2-{[(3R)-3-methylmorpholin-4-yl]methyl}piperazin-1-yl]ethan-1-one, a hydrochloride salt], in experiment [1] (@ 0.04 μM), the inhibition at 0.04 µM is 59%. Further, in experiment [2] (setting [5]), the IC50 came to 11 nM. For the same compound, in experiment [3] (72 hours, Alamar Blue), the EC50 was determined as 25 nM.
For `C[C@@H]1CN(CC(=O)N2CC(C)(C)c3cnc(C(F)(F)c4ccccc4)cc32)[C@@H](C(=O)N(C)C)CN1` [Example 158, (2R,5R)-1-(2-{6-[Difluoro(phenyl)methyl]-3,3-dimethyl-1H,2H,3H-pyrrolo[3,2-c]pyridin-1-yl}-2-oxoethyl)-N,N,5-trimethylpiperazine-2-carboxamide dihydrochloride], the half-inhibitory concentration (IC50) in experiment [1] was 49 nM. Besides, in experiment [2] (setting [4]), the inhibition at 0.01 µM came out at 51%. Further, the EC50 in experiment [3] (72 h) was found to be 300 nM.
As for `CC(=O)NC[C@H]1CN[C@H](C)CN1CC(=O)N1CC(C)(C)c2ccc(Cl)cc21` [Example 45, N-{(2R,5R)-1-[2-(6-Chloro-3,3-dimethyl-2,3-dihydro-indol-1-yl)-2-oxo-ethyl]-5-methyl-piperazin-2-ylmethyl}-acetamide hydrochloride salt], the values for the IC50 in experiment [1] and in experiment [2] (setting [5]) were 1100 nM and 580 nM, respectively. The EC50 in experiment [3] (72 hours, Alamar Blue) came to 5200 nM.
For `CC(C)C(F)(F)c1cc2c(cn1)C(C)(C)CN2C(=O)CN1C[C@@H](C)NC[C@@H]1CN1CCCC1=O` [Example 211, 1-{[(2R,5R)-1-{2-[6-(1,1-Difluoro-2-methylpropyl)-3,3-dimethyl-1H,2H,3H-pyrrolo[3,2-c]pyridin-1-yl]-2-oxoethyl}-5-methylpiperazin-2-yl]methyl}pyrrolidin-2-one hydrochloride], the IC50 in experiment [1] was 46 nM; in experiment [2] it was less than 1000 nM; in experiment [2] (setting [5]), 22 nM. For the same compound, the EC50 in experiment [3] (72 hours, Alamar Blue) is 630 nM.
On to `C[C@@H]1CN(CC(=O)N2CC(C)(C)c3cnc(Cc4ccccc4)cc32)[C@@H](C(=O)N2CCC2)CN1` [Example 100, 2-[(2R,5R)-2-[(Azetidin-1-yl)carbonyl]-5-methyl-piperazin-1-yl]-1-{6-benzyl-3,3-dimethyl-1H,2H,3H-pyrrolo[3,2-c]pyridin-1-yl}ethan-1-one, hydrochloride salt], for which the IC50 came out at 120 nM in experiment [1] and 14 nM in experiment [2] (setting [5]). Moreover, the EC50 in experiment [3] (72 hours, Alamar Blue) amounted to 450 nM.
For the compound `C[C@@H]1CN(CC(=O)N2CC(C)(C)c3ncc(C(F)(F)c4ccccc4)cc32)[C@@H](CN2CCOCC2)CN1` [Example 232, 1-{6-[Difluoro(phenyl)methyl]-3,3-dimethyl-1H,2H,3H-pyrrolo[3,2-b]pyridin-1-yl}-2-[(2R,5R)-5-methyl-2-(morpholin-4-ylmethyl)piperazin-1-yl]ethan-1-one dihydrochloride], in experiment [1], the inhibition at 0.04 µM is 48%. In experiment [2] (setting [4]), the inhibition at […] worked out at 77%. For the same compound, the EC50 in experiment [3] (72 hours, Alamar Blue) turned out to be 36 nM.
With `C[C@@H]1CN(CC(=O)N2CC(C)(C)c3cnc(C(F)(F)c4ccccc4)cc32)[C@@H](C(=O)N2CCOCC2)CN1` [Example 178, 1-{6-[Difluoro(phenyl)methyl]-3,3-dimethyl-1H,2H,3H-pyrrolo[3,2-c]pyridin-1-yl}-2-[(2R,5R)-5-methyl-2-[(morpholin-4-yl)carbonyl]piperazin-1-yl]ethan-1-one dihydrochloride], the inhibition at 0.04 µM in experiment [1] was 50%. Besides, the inhibition at […] in experiment [2] (setting [4]) was 60%. Further, in experiment [3] (72 hours, Alamar Blue), the EC50 worked out at 67 nM.
With `C[C@@H]1CN(CC(=O)N2CC(C)(C)c3cnc(C(F)(F)c4ccccc4)cc32)[C@@H](Cn2cc(F)cn2)CN1` [Example 176, 1-{6-[Difluoro(phenyl)methyl]-3,3-dimethyl-1H,2H,3H-pyrrolo[3,2-c]pyridin-1-yl}-2-[(2R,5R)-2-[(4-fluoro-1H-pyrazol-1-yl)methyl]-5-methylpiperazin-1-yl]ethan-1-one hydrochloride], the inhibition at 0.04 µM in experiment [1] (@ 0.04 μM) turned out to be 52%. For the same compound, in experiment [2] (setting [6]), the inhibition at […] came out at 70%. Further, in experiment [3] (72 hours, Alamar Blue), the EC50 was 26 nM.
For `C[C@@H]1CN(CC(=O)N2CC(C)(C)c3cnc(Cc4ccc(F)cc4F)cc32)[C@@H](Cn2ncccc2=O)CN1` [Example 194, 2-{[(2R,5R)-1-(2-{6-[(2,4-Difluorophenyl)methyl]-3,3-dimethyl-1H,2H,3H-pyrrolo[3,2-c]pyridin-1-yl}-2-oxoethyl)-5-methylpiperazin-2-yl]methyl}-2,3-dihydropyridazin-3-one dihydrochloride], the IC50 in experiment [1] was found to be 55 nM. The inhibition at […] in experiment [2] (setting [4]) amounted to 99%. In addition, the EC50 in experiment [3] (72 h) stood at 9.8 nM.
Turning to `CCCC(F)(F)c1cc2c(cn1)C(C)(C)CN2C(=O)CN1C[C@@H](C)NC[C@@H]1CN1CCOC[C@H]1C` [Example 252, 1-[6-(1,1-Difluorobutyl)-3,3-dimethyl-1H,2H,3H-pyrrolo[3,2-c]pyridin-1-yl]-2-[(2R,5R)-5-methyl-2-{[(3R)-3-methylmorpholin-4-yl]methyl}piperazin-1-yl]ethan-1-one diydrochloride], the inhibition at 0.04 µM in experiment [1] (@ 0.04 μM) came to 72%. The inhibition at […] in experiment [2] (setting [6]) was 91%. Besides, the EC50 in experiment [3] (72 hours, Alamar Blue) is 4 nM.
Turning to `CCC(F)(F)c1cnc2c(c1)N(C(=O)CN1C[C@@H](C)NC[C@@H]1CN1CCOC[C@H]1COC)CC2(C)C` [Example 256, 1-[6-(1,1-Difluoropropyl)-3,3-dimethyl-1H,2H,3H-pyrrolo[3,2-b]pyridin-1-yl]-2-[(2R,5R)-2-{[(3R)-3-(methoxymethyl)morpholin-4-yl]methyl}-5-methylpiperazin-1-yl]ethan-1-one dihydrochloride], the IC50 in experiment [1] is 53 nM; in experiment [2], less than 1000 nM; in experiment [2] (setting [7]), 24 nM. Besides, in experiment [3] (72 h), the EC50 amounted to 78 nM.
Consider `COC[C@H]1CN[C@H](C)CN1CC(=O)N1CC(C)(C)c2cnc(CC3CCCCC3)cc21` [Example 79, 1-[6-(Cyclohexylmethyl)-3,3-dimethyl-1H,2H,3H-pyrrolo[3,2-c]pyridin-1-yl]-2-[(2R,5R)-2-(methoxymethyl)-5-methylpiperazin-1-yl]ethan-1-one], for which the IC50 in experiment [1] was 1000 nM; in experiment [2] (setting [7]), 25 nM. In experiment [3] (72 hours, Alamar Blue), the EC50 was determined as 490 nM.
